According to patent US11566007B2, “Ras inhibitors” (Revolution Medicines, Inc., priority 2019, dated 2023):

What was measured:
KRAS G12V = KRAS G12V (Homo sapiens (Human), UniProt P01116+P62937, G12V); experiment: Ras-Raf (BRAF RBD) disruption / FRET / MOA assay, KRAS G12V; assay type: biochemical; conditions: read-out: IC50* KRAS G12V FRET data
How it was run: (§1)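 A 10-point, 3-fold dilution series topping at 30 μM final was incubated 3 h at 25° C with the Ras/cyclophilin A/BRAF RBD mixture.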

NRAS WT = NRAS WT (Homo sapiens (Human), UniProt P01111+P62937); experiment: Ras-Raf (BRAF RBD) disruption / FRET / MOA assay, NRAS WT; assay type: biochemical; conditions: read-out: IC50* NRAS WT FRET data
How it was run: (§2)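 Compounds (30 μM top final, 10-point 3-fold dilutions) incubated 3 h at 25° C with nucleotide-loaded Ras, cyclophilin A and BRAF RBD. Detection with 10 nM anti-His Eu-W1024 and 50 nM anti-GST allophycocyanin over another 1.5 h. Lowered TR-FRET ratio relative to DMSO wells gives IC50.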

K-Ras G13C = K-Ras G13C (Homo sapiens (Human), UniProt P01116+P62937, G13C); experiment: Ras-Raf (BRAF RBD) disruption / FRET / MOA assay, KRAS G13C; assay type: biochemical; conditions: KRAS G13C; Ras-Raf disruption/FRET/MOA assay; read-out: IC50* KRAS G13C FRET data
How it was run: as §1

KRAS WT = KRAS WT (Homo sapiens (Human), UniProt P01116+P62937); experiment: Ras-Raf (BRAF RBD) disruption / FRET / MOA assay, KRAS WT; assay type: biochemical; conditions: read-out: IC50* KRAS WT FRET data
How it was run: as §1

KRAS G12S = KRAS G12S (Homo sapiens (Human), UniProt P01116+P62937, G12S); experiment: Ras-Raf (BRAF RBD) disruption / FRET / MOA assay, KRAS G12S; assay type: biochemical; conditions: Ras-Raf disruption/FRET/MOA assay; class symbols; read-out: KRAS G12S FRET data IC50
How it was run: as §1

KRAS G12D = KRAS G12D (Homo sapiens (Human), UniProt P01116+P62937, G12D); experiment: Ras-Raf (BRAF RBD) disruption / FRET / MOA assay, KRAS G12D; assay type: biochemical; conditions: Ras-Raf disruption/FRET/MOA assay; class symbols; read-out: KRAS G12D FRET data IC50
How it was run: as §1

NRAS Q61K = NRAS Q61K (Homo sapiens (Human), UniProt P01111+P62937, Q61K); experiment: Ras-Raf (BRAF RBD) disruption / FRET / MOA assay, NRAS Q61K; assay type: biochemical; conditions: NRAS Q61K; Ras-Raf disruption/FRET/MOA assay; read-out: IC50* NRAS Q61K FRET data
How it was run: as §2

NCI-H358 (K-Ras G12C) = experiment: CellTiter-Glo cell viability assay, NCI-H358; assay type: cell-based, human; conditions: Homo sapiens, NCI-H358, 120 h, NCI-H358, 5-day treatment; class symbols; read-out: Additional H358 Cell Viability assay data (K-Ras G12C, IC50)
How it was run: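 Cells seeded, compound added directly, 5-day exposure. Plates to RT ~30 min, CellTiter-Glo luminescence read. Normalized to DMSO avg (x100); 4-parameter logistic fit.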

NRAS Q61R = NRAS Q61R (Homo sapiens (Human), UniProt P01111+P62937, Q61R); experiment: Ras-Raf (BRAF RBD) disruption / FRET / MOA assay, NRAS Q61R; assay type: biochemical; conditions: NRAS Q61R; Ras-Raf disruption/FRET/MOA assay; read-out: IC50* NRAS Q61R FRET data
How it was run: as §2

NRAS G12C = NRAS G12C (Homo sapiens (Human), UniProt P01111+P62937, G12C); experiment: Ras-Raf (BRAF RBD) disruption / FRET / MOA assay, NRAS G12C; assay type: biochemical; conditions: read-out: IC50* NRAS G12C FRET data
How it was run: as §1

K-Ras G12C = K-Ras G12C (Homo sapiens (Human), UniProt P01116+P62937, G12C); experiment: Ras-Raf (BRAF RBD) disruption / FRET / MOA assay, KRAS G12C; assay type: biochemical; conditions: KRAS G12C; Ras-Raf disruption/FRET/MOA assay; read-out: IC50* KRAS G12C FRET data
How it was run: as §1

KRAS Q61H = KRAS Q61H (Homo sapiens (Human), UniProt P01116+P62937, Q61H); experiment: Ras-Raf (BRAF RBD) disruption / FRET / MOA assay, KRAS Q61H; assay type: biochemical; conditions: Ras-Raf disruption/FRET/MOA assay; class symbols; read-out: KRAS Q61H FRET data IC50
How it was run: as §2

Sequence of NRAS WT (P01111 whole entry): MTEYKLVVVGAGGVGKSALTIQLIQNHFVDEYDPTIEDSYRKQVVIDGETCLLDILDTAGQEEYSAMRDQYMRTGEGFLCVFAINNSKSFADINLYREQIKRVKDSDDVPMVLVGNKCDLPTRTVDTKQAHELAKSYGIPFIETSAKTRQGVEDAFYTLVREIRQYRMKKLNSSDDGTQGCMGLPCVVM
Sequence of NRAS WT (P62937 whole entry): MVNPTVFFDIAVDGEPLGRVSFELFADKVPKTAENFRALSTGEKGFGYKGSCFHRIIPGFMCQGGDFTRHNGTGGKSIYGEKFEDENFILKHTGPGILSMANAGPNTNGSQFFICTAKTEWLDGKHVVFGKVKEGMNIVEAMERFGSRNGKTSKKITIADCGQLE
Sequence of KRAS WT (P01116-2 other isoform, or with tags, fused parts or gaps): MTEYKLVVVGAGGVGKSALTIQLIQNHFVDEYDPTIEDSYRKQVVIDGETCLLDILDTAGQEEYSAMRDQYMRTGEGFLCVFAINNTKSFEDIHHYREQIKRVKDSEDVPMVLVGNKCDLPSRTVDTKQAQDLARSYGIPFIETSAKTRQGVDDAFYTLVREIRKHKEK
Sequence of KRAS WT (P62937 whole entry): as the sequence (P62937 whole entry) above
Sequence of KRAS G12V (P01116-2 other isoform, or with tags, fused parts or gaps G12V): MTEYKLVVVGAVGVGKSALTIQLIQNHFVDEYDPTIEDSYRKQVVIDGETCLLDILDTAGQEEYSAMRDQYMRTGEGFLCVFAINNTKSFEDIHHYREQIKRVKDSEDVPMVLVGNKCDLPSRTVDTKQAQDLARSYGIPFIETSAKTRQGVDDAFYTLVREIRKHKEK
Sequence of KRAS G12V (P62937 whole entry): as the sequence (P62937 whole entry) above
Sequence of KRAS G12S (P01116-2 other isoform, or with tags, fused parts or gaps G12S): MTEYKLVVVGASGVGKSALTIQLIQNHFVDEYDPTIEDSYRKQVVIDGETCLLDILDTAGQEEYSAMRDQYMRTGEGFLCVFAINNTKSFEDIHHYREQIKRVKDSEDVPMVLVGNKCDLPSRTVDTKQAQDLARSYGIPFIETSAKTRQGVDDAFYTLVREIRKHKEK
Sequence of KRAS G12S (P62937 whole entry): as the sequence (P62937 whole entry) above
Sequence of KRAS Q61H (P01116-2 other isoform, or with tags, fused parts or gaps Q61H): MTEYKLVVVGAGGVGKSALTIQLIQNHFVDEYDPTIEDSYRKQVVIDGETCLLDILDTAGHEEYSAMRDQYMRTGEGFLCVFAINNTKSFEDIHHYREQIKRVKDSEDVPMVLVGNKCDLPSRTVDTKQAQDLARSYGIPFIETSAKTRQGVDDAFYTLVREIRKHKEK
Sequence of KRAS Q61H (P62937 whole entry): as the sequence (P62937 whole entry) above
Sequence of NRAS G12C (P01111 whole entry G12C): as the sequence (P01111 whole entry) above, with G12C counted along it
Sequence of NRAS G12C (P62937 whole entry): as the sequence (P62937 whole entry) above
Sequence of K-Ras G13C (P01116-2 other isoform, or with tags, fused parts or gaps G13C): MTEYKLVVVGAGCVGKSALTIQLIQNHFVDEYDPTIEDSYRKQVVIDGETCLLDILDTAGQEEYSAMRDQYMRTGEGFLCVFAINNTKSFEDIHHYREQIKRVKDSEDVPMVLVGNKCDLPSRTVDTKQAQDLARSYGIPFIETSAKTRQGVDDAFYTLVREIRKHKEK
Sequence of K-Ras G13C (P62937 whole entry): as the sequence (P62937 whole entry) above
Sequence of KRAS G12D (P01116-2 other isoform, or with tags, fused parts or gaps G12D): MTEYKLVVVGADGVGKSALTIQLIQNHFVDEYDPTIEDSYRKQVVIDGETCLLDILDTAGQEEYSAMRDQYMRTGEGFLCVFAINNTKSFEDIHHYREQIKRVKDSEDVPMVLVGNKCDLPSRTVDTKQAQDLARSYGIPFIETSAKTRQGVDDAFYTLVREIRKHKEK
Sequence of KRAS G12D (P62937 whole entry): as the sequence (P62937 whole entry) above
Sequence of NRAS Q61R (P01111 whole entry Q61R): as the sequence (P01111 whole entry) above, with Q61R counted along it
Sequence of NRAS Q61R (P62937 whole entry): as the sequence (P62937 whole entry) above
Sequence of NRAS Q61K (P01111 whole entry Q61K): as the sequence (P01111 whole entry) above, with Q61K counted along it
Sequence of NRAS Q61K (P62937 whole entry): as the sequence (P62937 whole entry) above
Sequence of K-Ras G12C (P01116-2 other isoform, or with tags, fused parts or gaps G12C): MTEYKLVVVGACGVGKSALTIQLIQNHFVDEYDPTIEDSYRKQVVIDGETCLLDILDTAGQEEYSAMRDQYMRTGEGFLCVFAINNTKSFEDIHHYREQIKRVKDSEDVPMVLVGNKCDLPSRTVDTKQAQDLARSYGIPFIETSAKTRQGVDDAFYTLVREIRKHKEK
Sequence of K-Ras G12C (P62937 whole entry): as the sequence (P62937 whole entry) above

Structure (SMILES) | IC50 (KRAS G12V) | IC50 (NRAS WT) | IC50 (K-Ras G13C) | IC50 (KRAS WT) | IC50 (KRAS G12S) | IC50 (KRAS G12D) | IC50 (NRAS Q61K) | IC50 (NCI-H358 (K-Ras G12C)) | IC50 (NRAS Q61R) | IC50 (NRAS G12C) | IC50 (K-Ras G12C) | IC50 (KRAS Q61H)
C=C(OC)C(=O)N1CC2(CCN(C(=O)N(C)[C@H](C(=O)N[C@H]3Cc4nc(cs4)-c4ccc5c(c4)c(c(-c4cccnc4[C@H](C)OC)n5CC)CC(C)(C)COC(=O)[C@@H]4CCCN(N4)C3=O)C(C)C)CC2)C1 (atropisomer, axis not shown) [Example A681] | 0.1 to 1 µM | 0.1 to 1 µM | 0.1 to 1 µM | 0.1 to 1 µM | 0.1 to 1 µM | 0.1 to 1 µM | 0.01 to 0.1 µM | 0.01 to 0.1 µM | 0.1 to 1 µM | 0.01 to 0.1 µM | 0.01 to 0.1 µM | 0.01 to 0.1 µM
C=C(F)C(=O)N1CC2(CCN(C(=O)N(C)[C@H](C(=O)N[C@H]3Cc4nc(cs4)-c4ccc5c(c4)c(c(-c4cccnc4[C@H](C)OC)n5CC)CC(C)(C)COC(=O)[C@@H]4CCCN(N4)C3=O)C(C)C)CC2)C1 (atropisomer, axis not shown) [Example A682] | 0.1 to 1 µM | 0.1 to 1 µM | 0.1 to 1 µM | 0.1 to 1 µM | 0.1 to 1 µM | 0.1 to 1 µM | 0.01 to 0.1 µM | 0.01 to 0.1 µM | 0.1 to 1 µM | 0.01 to 0.1 µM | 0.01 to 0.1 µM | 0.01 to 0.1 µM
C=CC(=O)N1CC2(CCN2C(=O)N(C)[C@H](C(=O)N[C@H]2Cc3cccc(c3)-c3ccc4c(c3)c(c(-c3cccnc3[C@H](C)OC)n4CC)CC(C)(C)COC(=O)[C@@H]3CCCN(N3)C2=O)C(C)C)C1 (atropisomer, axis not shown) [Example A684] | 0.1 to 1 µM | 0.1 to 1 µM | 0.1 to 1 µM | 0.1 to 1 µM | 0.1 to 1 µM | 1 to 10 µM | 0.1 to 1 µM | < 0.01 µM | 0.1 to 1 µM | < 0.01 µM | < 0.01 µM | 0.01 to 0.1 µM
C=CC(=O)N1C[C@H]2CN(C(=O)N(C)[C@H](C(=O)N[C@H]3Cc4nc(cs4)-c4ccc5c(c4)c(c(-c4cccnc4[C@H](C)OC)n5CC)CC(C)(C)COC(=O)[C@@H]4CCCN(N4)C3=O)C(C)C)[C@H]2C1 (atropisomer, axis not shown) [Example A686] | 0.1 to 1 µM | 0.1 to 1 µM | 0.1 to 1 µM | 0.1 to 1 µM | 0.1 to 1 µM | 1 to 10 µM | 0.01 to 0.1 µM | < 0.01 µM | 0.1 to 1 µM | 0.01 to 0.1 µM | 0.01 to 0.1 µM | 0.01 to 0.1 µM
C=CC(=O)N1CC[C@H]2[C@@H](C1)CN2C(=O)N(C)[C@H](C(=O)N[C@H]1Cc2nc(cs2)-c2ccc3c(c2)c(c(-c2cccnc2[C@H](C)OC)n3CC)CC(C)(C)COC(=O)[C@@H]2CCCN(N2)C1=O)C(C)C (atropisomer, axis not shown) [Example A687] | 0.1 to 1 µM | 0.1 to 1 µM | 0.1 to 1 µM | 0.1 to 1 µM | 0.1 to 1 µM | 1 to 10 µM | 0.01 to 0.1 µM | 0.01 to 0.1 µM | 0.1 to 1 µM | 0.1 to 1 µM | 0.1 to 1 µM | 0.01 to 0.1 µM
CCn1c(-c2cccnc2[C@H](C)OC)c2c3cc(ccc31)-c1csc(n1)C[C@H](NC(=O)C[C@@H]1COC3(CN(C(=O)C#CC(C)(C)N(C)C)C3)O1)C(=O)N1CCC[C@H](N1)C(=O)OCC(C)(C)C2 (atropisomer, axis not shown) [Example A691] | 1 to 10 µM | 1 to 10 µM | 1 to 10 µM | 1 to 10 µM | 1 to 10 µM | 1 to 10 µM | 1 to 10 µM | < 0.01 µM | 1 to 10 µM | < 0.01 µM | < 0.01 µM | 1 to 10 µM
CCn1c(-c2cccnc2[C@H](C)OC)c2c3cc(ccc31)-c1cnc(o1)C[C@H](NC(=O)[C@H](C(C)C)N(C)C(=O)[C@H]1CCN(C(=O)C#CC(C)(C)N(C)C)C1)C(=O)N1CCC[C@H](N1)C(=O)OCC(C)(C)C2 (atropisomer, axis not shown) [Example A692, (3S)-1-(4-(dimethylamino)-4-methylpent-2-ynoyl)-N-((2S)-1-(((6^3S,4S)-1^1-ethyl-1^2-(2-((S)-1-methoxyethyl)pyridin-3-yl)-10,10-dimethyl-5,7-dioxo-6^1,6^2,6^3,6^4,6^5,6^6-hexahydro-1^1H-8-oxa-2(5,2)-oxazola-1(5,3)-indola-6(1,3)-pyridazinacycloundecaphane-4-yl)amino)-3-methyl-1-oxobutan-2-yl)-N-methylpyrrolidine-3-carboxamide] | 1 to 10 µM | > 10 µM | 0.1 to 1 µM | 1 to 10 µM | 1 to 10 µM | > 10 µM | > 10 µM | < 0.01 µM | > 10 µM | < 0.01 µM | < 0.01 µM | 1 to 10 µM
C=CC(=O)N1CCOC2(CCN(C(=O)N(C)[C@H](C(=O)N[C@H]3Cc4nc(cs4)-c4ccc5c(c4)c(c(-c4cccnc4[C@H](C)OC)n5CC)CC(C)(C)COC(=O)[C@@H]4CCCN(N4)C3=O)C(C)C)CC2)C1 (atropisomer, axis not shown) [Example A695] | 0.1 to 1 µM | 0.1 to 1 µM | 0.01 to 0.1 µM | 0.1 to 1 µM | 0.1 to 1 µM | 1 to 10 µM | 0.1 to 1 µM | 0.01 to 0.1 µM | 0.1 to 1 µM | 0.01 to 0.1 µM | 0.1 to 1 µM | 0.1 to 1 µM
C=CC(=O)N1CCC2(CC1)CCN(C(=O)N(C)[C@H](C(=O)N[C@H]1Cc3nc(cs3)-c3ccc4c(c3)c(c(-c3cccnc3[C@H](C)OC)n4CC)CC(C)(C)COC(=O)[C@@H]3CCCN(N3)C1=O)C(C)C)CC2 (atropisomer, axis not shown) [Example A697] | 0.1 to 1 µM | 0.01 to 0.1 µM | 0.1 to 1 µM | 0.1 to 1 µM | 0.1 to 1 µM | 0.1 to 1 µM | 0.01 to 0.1 µM | 0.01 to 0.1 µM | 0.01 to 0.1 µM | 0.01 to 0.1 µM | 0.01 to 0.1 µM | 0.01 to 0.1 µM
C=CC(=O)N1CCC(F)(C(=O)N(C)[C@H](C(=O)N[C@H]2Cc3nc(cs3)-c3ccc4c(c3)c(c(-c3cccnc3[C@H](C)OC)n4CC)CC(C)(C)COC(=O)[C@@H]3CCCN(N3)C2=O)C(C)C)CC1 (atropisomer, axis not shown) [Example A700] | 0.1 to 1 µM | 0.1 to 1 µM | 0.1 to 1 µM | 0.1 to 1 µM | 0.1 to 1 µM | 0.1 to 1 µM | 0.1 to 1 µM | < 0.01 µM | 0.1 to 1 µM | 0.01 to 0.1 µM | 0.01 to 0.1 µM | 0.1 to 1 µM
C=CC(=O)N1CCO[C@H]2CN(C(=O)N(C)[C@H](C(=O)N[C@H]3Cc4nc(cs4)-c4ccc5c(c4)c(c(-c4cccnc4[C@H](C)OC)n5CC)CC(C)(C)COC(=O)[C@@H]4CCCN(N4)C3=O)C(C)C)C[C@H]21 (atropisomer, axis not shown) [Example A706] | 1 to 10 µM | 1 to 10 µM | 0.01 to 0.1 µM | 1 to 10 µM | 1 to 10 µM | > 10 µM | 0.1 to 1 µM | < 0.01 µM | 0.1 to 1 µM | 0.01 to 0.1 µM | 0.01 to 0.1 µM | 0.1 to 1 µM
CO[C@@H](C)c1ncccc1-c1c2c3cc(ccc3n1CC(F)(F)F)-c1cnc(o1)C[C@H](NC(=O)[C@H](C(C)C)N(C)C(=O)[C@H]1CCN(C(=O)C#CC(C)(C)N(C)C)C1)C(=O)N1CCC[C@H](N1)C(=O)OCC(C)(C)C2 (atropisomer, axis not shown) [Example A707] | 1 to 10 µM | 1 to 10 µM | 0.1 to 1 µM | 1 to 10 µM | 1 to 10 µM | 1 to 10 µM | > 10 µM | < 0.01 µM | > 10 µM | < 0.01 µM | < 0.01 µM | 1 to 10 µM
